A short description of data set [1]: Inhibition of brain damage in C57BL/6J mouse traumatic brain injury model at 25 mg/kg, ip for 7 days by cresyl violet-staining based histopathological analysis. It is filed as functional. The note with it: 168 h, time 7 day.
Data set [2] deals with T1, Neutrophil collagenase (Homo sapiens, UniProt P22894). Description: Inhibition of recombinant human MMP-8 for 3 hrs using colorimetric substrate by ELISA. For orientation: An ELISA detects its analyte on a solid surface through an enzyme-linked reagent.
T1 sequence (P22894 whole entry): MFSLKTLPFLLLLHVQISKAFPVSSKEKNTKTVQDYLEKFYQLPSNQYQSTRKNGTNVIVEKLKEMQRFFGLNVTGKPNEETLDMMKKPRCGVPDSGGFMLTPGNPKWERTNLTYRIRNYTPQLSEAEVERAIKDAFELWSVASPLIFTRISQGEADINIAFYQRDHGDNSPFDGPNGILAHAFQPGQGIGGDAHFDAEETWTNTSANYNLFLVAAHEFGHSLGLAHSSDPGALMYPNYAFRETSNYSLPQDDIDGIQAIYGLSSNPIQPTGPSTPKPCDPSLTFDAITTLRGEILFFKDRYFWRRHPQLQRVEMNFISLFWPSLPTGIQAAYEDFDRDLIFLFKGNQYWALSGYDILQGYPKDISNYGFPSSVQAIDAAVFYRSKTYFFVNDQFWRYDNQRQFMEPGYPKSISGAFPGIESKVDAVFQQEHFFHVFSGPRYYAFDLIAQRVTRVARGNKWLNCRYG
Data set [3] concerns the target T1, Neutrophil collagenase. Description: Inhibition of MMP-8 (unknown origin).
Data set [4] concerns the target T2, Stromelysin-2 (Homo sapiens, UniProt P09238). Description: Inhibition of MMP-10 (unknown origin).
For data set [5], the target named is T3, 72 kDa type IV collagenase (Homo sapiens, UniProt P08253). Kind of data set: Inhibition of MMP-2 (unknown origin) catalytic activity using Ac-PLG-[2-mercapto-4-methylpentanoyl]-LG-OC2H5 as substrate and measured upto 30 mins by microplate reader analysis.
T3 sequence (P08253 whole entry): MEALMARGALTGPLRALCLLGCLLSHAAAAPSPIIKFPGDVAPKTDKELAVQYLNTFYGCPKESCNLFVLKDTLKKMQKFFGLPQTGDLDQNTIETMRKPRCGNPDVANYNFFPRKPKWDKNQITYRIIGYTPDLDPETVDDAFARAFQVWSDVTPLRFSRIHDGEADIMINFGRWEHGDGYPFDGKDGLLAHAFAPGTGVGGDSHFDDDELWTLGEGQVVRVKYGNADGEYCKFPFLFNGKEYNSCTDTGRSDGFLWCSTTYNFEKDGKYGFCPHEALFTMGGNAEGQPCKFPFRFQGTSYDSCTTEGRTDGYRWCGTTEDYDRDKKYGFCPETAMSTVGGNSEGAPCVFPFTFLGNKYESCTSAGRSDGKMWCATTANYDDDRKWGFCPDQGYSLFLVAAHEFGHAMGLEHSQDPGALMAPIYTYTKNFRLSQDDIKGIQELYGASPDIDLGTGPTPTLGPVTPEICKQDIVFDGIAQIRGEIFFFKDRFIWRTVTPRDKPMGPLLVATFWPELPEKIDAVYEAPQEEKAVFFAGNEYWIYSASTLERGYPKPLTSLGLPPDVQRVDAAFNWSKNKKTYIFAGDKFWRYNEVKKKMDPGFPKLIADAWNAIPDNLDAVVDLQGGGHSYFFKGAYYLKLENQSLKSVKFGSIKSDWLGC
Data set [6] is described as follows: Aqueous solubility of compound by UV spectroscopy. It is filed as physicochemical.
Another data set concerns HT-1080. Description: Inhibition of cell invasion in human HT-1080 for 22 hrs by CyQuantGR dye based fluorometric analysis. It is filed as functional.
The target in data set [7] is T4, Matrix metalloproteinase-9 (Homo sapiens, UniProt P14780). Description: Inhibition of MMP-9 (unknown origin) catalytic activity using Ac-PLG-[2-mercapto-4-methylpentanoyl]-LG-OC2H5 as substrate and measured upto 30 mins by microplate reader analysis.
T4 sequence (P14780 whole entry): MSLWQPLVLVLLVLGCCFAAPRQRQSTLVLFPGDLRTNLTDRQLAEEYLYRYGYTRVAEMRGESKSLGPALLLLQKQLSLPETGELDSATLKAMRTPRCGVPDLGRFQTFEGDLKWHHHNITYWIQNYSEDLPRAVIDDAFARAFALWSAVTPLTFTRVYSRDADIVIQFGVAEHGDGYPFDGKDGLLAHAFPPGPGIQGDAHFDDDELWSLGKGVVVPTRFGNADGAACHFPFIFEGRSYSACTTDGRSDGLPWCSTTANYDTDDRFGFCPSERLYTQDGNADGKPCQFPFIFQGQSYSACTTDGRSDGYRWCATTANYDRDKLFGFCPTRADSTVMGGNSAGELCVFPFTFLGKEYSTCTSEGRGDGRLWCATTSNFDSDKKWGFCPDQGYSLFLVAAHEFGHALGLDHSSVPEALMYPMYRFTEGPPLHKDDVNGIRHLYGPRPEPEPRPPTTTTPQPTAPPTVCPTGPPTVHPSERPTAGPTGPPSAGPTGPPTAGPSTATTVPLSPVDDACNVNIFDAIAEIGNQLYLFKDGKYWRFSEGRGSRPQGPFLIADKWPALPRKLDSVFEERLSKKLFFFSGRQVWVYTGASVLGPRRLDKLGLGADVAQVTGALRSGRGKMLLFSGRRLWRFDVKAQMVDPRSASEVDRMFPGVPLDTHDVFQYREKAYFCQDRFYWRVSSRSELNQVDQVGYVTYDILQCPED
The target of data set [8] is T5, Matrilysin (Homo sapiens, UniProt P09237).
T5 sequence (P09237 whole entry): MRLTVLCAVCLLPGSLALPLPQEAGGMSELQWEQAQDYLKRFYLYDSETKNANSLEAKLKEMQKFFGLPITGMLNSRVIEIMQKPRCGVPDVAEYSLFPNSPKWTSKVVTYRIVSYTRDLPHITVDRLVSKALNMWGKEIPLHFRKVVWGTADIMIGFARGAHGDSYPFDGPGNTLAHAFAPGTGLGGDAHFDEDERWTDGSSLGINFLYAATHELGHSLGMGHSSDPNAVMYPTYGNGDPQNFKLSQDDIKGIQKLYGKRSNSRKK
Kind of data set: Inhibition of MMP-7 (unknown origin).

The target in data set [9] is T6, Matrix metalloproteinase-14 (Homo sapiens, UniProt P50281). Kind of data set: Inhibition of MMP-14 (unknown origin).
For data set [10], the target named is T7, Stromelysin-1 (Homo sapiens, UniProt P08254). Kind of data set: Inhibition of MMP-3 (unknown origin).
T7 sequence (P08254 whole entry): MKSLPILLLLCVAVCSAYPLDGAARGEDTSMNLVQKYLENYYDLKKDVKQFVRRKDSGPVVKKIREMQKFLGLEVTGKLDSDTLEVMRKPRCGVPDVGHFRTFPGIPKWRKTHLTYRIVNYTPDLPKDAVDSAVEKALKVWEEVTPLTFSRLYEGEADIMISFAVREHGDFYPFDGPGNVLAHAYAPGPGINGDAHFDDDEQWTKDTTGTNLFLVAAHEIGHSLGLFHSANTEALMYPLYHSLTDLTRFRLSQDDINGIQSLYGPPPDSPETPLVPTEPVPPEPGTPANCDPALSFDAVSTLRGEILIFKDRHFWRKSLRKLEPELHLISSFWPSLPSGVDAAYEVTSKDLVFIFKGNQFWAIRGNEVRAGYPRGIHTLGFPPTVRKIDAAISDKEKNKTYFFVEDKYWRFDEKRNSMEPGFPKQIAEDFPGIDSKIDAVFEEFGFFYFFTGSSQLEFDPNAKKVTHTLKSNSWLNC
Data set [11] has as its target T8, Macrophage metalloelastase (Homo sapiens, UniProt P39900). Kind of data set: Inhibition of MMP-12 (unknown origin).
The target of data set [12] is T9, Collagenase 3 (Homo sapiens, UniProt P45452).
Description: Inhibition of MMP-13 (unknown origin)
For data set [13], the target named is T10, Interstitial collagenase (Homo sapiens, UniProt P03956).
T10 sequence (P03956 whole entry): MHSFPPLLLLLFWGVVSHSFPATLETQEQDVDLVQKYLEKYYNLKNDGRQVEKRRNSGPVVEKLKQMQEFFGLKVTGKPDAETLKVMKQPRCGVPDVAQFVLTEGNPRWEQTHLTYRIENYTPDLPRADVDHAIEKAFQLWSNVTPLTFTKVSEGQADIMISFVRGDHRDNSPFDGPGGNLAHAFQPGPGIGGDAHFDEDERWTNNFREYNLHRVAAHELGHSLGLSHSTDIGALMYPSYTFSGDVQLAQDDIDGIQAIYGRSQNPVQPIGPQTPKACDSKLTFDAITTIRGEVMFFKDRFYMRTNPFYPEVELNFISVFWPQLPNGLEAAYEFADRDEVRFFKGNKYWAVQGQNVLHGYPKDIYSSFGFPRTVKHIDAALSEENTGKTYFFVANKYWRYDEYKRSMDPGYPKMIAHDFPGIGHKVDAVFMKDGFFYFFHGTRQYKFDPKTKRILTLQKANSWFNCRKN
Description: Inhibition of MMP-1 (unknown origin).

For data set [14], the target named is T4, Matrix metalloproteinase-9. Kind of data set: Inhibition of MMP-9 (unknown origin) using Mca-Pro-Leu-Gly-Leu-Dpa-Ala-Arg-NH2 as substrate preincubated for 30 mins followed by substrate addition for 2 to 4 hrs by fluorimetric assay.
Data set [15] concerns the target T6, Matrix metalloproteinase-14. Kind of data set: Inhibition of MMP-14 (unknown origin) using Mca-Pro-Leu-Gly-Leu-Dpa-Ala-Arg-NH2 as substrate preincubated for 30 mins followed by substrate addition for 2 to 4 hrs by fluorimetric assay.
For data set [16], the target named is T1, Neutrophil collagenase. Description: Inhibition of MMP-8 (unknown origin) using Mca-Pro-Leu-Gly-Leu-Dpa-Ala-Arg-NH2 as substrate preincubated for 30 mins followed by substrate addition for 2 to 4 hrs by fluorimetric assay.
Data set [17] deals with T4, Matrix metalloproteinase-9. Kind of data set: Inhibition of human MMP-9 expressed in Escherichia coli BL21(DE3) using Mca-Pro-Leu-Gly-Leu-Dpa-Ala-Arg-NH2 as substrate preincubated for 30 mins followed by susbstrate addition by photon-counter spectrophotometer analysis.
For data set [18], the target named is T5, Matrilysin. Description: Inhibition of human MMP-7 expressed in Escherichia coli BL21(DE3) using Mca-Pro-Leu-Gly-Leu-Dpa-Ala-Arg-NH2 as substrate preincubated for 30 mins followed by susbstrate addition by photon-counter spectrophotometer analysis.
In data set [19] the target is T7, Stromelysin-1. Description: Inhibition of human MMP-3 expressed in Escherichia coli BL21(DE3) using Mca-Pro-Leu-Gly-Leu-Dpa-Ala-Arg-NH2 as substrate preincubated for 30 mins followed by susbstrate addition by photon-counter spectrophotometer analysis.
The target of data set [20] is T6, Matrix metalloproteinase-14. Kind of data set: Inhibition of human MMP-14 expressed in Escherichia coli BL21(DE3) using Mca-Pro-Leu-Gly-Leu-Dpa-Ala-Arg-NH2 as substrate preincubated for 30 mins followed by susbstrate addition by photon-counter spectrophotometer analysis.
Data set [21] addresses T2, Stromelysin-2. Kind of data set: Inhibition of human MMP-10 expressed in Escherichia coli BL21(DE3) using Mca-Pro-Leu-Gly-Leu-Dpa-Ala-Arg-NH2 as substrate preincubated for 30 mins followed by susbstrate addition by photon-counter spectrophotometer analysis.
Data set [22] addresses T9, Collagenase 3. Description: Inhibition of human MMP-13 expressed in Escherichia coli BL21(DE3) using Mca-Pro-Leu-Gly-Leu-Dpa-Ala-Arg-NH2 as substrate preincubated for 30 mins followed by susbstrate addition by photon-counter spectrophotometer analysis.
Data set [23] addresses T1, Neutrophil collagenase. Description: Inhibition of human MMP-8 expressed in Escherichia coli BL21(DE3) using Mca-Pro-Leu-Gly-Leu-Dpa-Ala-Arg-NH2 as substrate preincubated for 30 mins followed by susbstrate addition by photon-counter spectrophotometer analysis.
In data set [24] the target is T10, Interstitial collagenase. Kind of data set: Inhibition of human MMP-1 expressed in Escherichia coli BL21(DE3) using Mca-Pro-Leu-Gly-Leu-Dpa-Ala-Arg-NH2 as substrate preincubated for 30 mins followed by susbstrate addition by photon-counter spectrophotometer analysis.
In data set [25] the target is T3, 72 kDa type IV collagenase. Kind of data set: Inhibition of human MMP-2 expressed in Escherichia coli BL21(DE3) using Mca-Pro-Leu-Gly-Leu-Dpa-Ala-Arg-NH2 as substrate preincubated for 30 mins followed by susbstrate addition by photon-counter spectrophotometer analysis.
For data set [26], the target named is T9, Collagenase 3. Description: Inhibition of recombinant human MMP-13 using peptide substrate by ELISA.
Data set [27] is described as follows: Inhibition of recombinant human TACE using peptide substrate by ELISA.
Data set [28] can be described thus: Half life in Sprague-Dawley rats at 33 mg/kg, sc. It is filed as ADME, organism-based. The note with it: rat, in vivo.
Data set [29] in a line: Half life in Sprague-Dawley rat at 33 mg/kg, po. Type of data set: ADME, organism-based. The note with it: in vivo.
Data set [30] has as its target T8, Macrophage metalloelastase. Kind of data set: Inhibition of recombinant human MMP-12 using peptide substrate by ELISA.
Data set [31] is described as follows: AUC in Sprague-Dawley rats at 33 mg/kg, sc. Also noted: dose 33 mg/kg, route sc. Type of data set: ADME, organism-based. The note with it: rat, in vivo.
Data set [32] concerns the target T4, Matrix metalloproteinase-9. Description: Inhibition of recombinant human MMP-9 using peptide substrate by ELISA.
Data set [33] addresses T3, 72 kDa type IV collagenase. Description: Inhibition of recombinant human MMP-2 using peptide substrate by ELISA.
Data set [34] in a line: AUC in Sprague-Dawley rats at 33 mg/kg, po. Type of data set: ADME, organism-based. Also noted: dose 33 mg/kg, route po. The note with it: rat, in vivo.

pIC50, pKi: −log10 of the molar value. Converted amounts (≈) assume the structure as drawn.

T8 sequence (P39900 whole entry): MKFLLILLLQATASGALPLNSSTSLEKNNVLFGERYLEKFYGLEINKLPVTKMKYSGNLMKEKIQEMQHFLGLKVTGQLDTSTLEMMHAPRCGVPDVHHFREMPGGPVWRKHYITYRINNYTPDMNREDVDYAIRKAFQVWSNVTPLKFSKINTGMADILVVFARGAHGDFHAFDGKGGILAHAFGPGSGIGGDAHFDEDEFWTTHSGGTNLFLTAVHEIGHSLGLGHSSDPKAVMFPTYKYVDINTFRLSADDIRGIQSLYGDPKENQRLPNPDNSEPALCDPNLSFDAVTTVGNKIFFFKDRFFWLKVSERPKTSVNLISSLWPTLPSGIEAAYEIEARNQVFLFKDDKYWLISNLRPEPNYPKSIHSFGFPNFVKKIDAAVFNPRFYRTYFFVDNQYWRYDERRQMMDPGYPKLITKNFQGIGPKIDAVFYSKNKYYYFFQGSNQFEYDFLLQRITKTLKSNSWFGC
T2 sequence (P09238 whole entry): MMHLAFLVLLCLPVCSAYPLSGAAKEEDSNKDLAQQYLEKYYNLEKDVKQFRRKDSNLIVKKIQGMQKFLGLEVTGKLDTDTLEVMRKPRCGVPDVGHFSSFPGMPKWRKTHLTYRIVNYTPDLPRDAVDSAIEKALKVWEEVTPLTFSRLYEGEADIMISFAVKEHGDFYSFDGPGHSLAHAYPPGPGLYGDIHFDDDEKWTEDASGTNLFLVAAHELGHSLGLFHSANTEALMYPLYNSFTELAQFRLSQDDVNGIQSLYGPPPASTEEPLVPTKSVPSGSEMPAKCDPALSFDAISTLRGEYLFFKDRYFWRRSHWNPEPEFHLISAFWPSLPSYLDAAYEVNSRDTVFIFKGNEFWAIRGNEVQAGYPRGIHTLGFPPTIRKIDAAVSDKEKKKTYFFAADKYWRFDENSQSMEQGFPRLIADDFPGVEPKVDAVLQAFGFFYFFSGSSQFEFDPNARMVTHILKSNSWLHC

As usually defined, the inhibition in vivo is the share of the control response that was lost under treatment. As for `O=S(=O)(CC1CS1)c1ccc(Oc2ccccc2)cc1` (stereo not given), the inhibition in vivo at 25 mg/kg in data set [1] was found to be 14%.

In general, pIC50 refers to the negative decadic logarithm of the IC50, by convention in mol/L. On to `O=C(NC1CCC1)P(=O)(O)O` [(CYCLOBUTYLAMINO)CARBONYLPHOSPHONIC ACID], for which, at Neutrophil collagenase [2], the negative logarithm of the IC50 (pIC50) is 8.40.

The term solubility denotes the dissolved amount per volume that the medium holds. For `CN(C)c1ccc(-c2cn(-c3ccc(S(=O)(=O)C4(C(=O)NO)CCOCC4)cc3)nn2)cc1`, the pIC50 is 6.69 at Neutrophil collagenase [3]; 7.35 at Stromelysin-2 [4]; 8.77 in [5]; 7.36 in [7]; 6.08 on Matrilysin [8]; 6.54 in [9]. Further, the negative logarithm of the IC50 (pIC50) is 7.30 against Stromelysin-1 [10], 8.32 in [11], 8.49 against Collagenase 3 [12] and under 6.00 on Interstitial collagenase [13]. The compound further yielded a solubility in data set [6] of 996 µg/mL (≈ 2110 µM). For the same compound, the “inhibition (INH)” value in the data set with HT-1080 is listed as 37%.

Consider `O=P(O)(O)C(NS(=O)(=O)c1ccc(-c2ccc(Cl)cc2)cc1)P(=O)(O)O`, for which the figures for the pIC50 (in data set [14]; in data set [15]; against Neutrophil collagenase [16]) were under 6.00, under 6.00 and 6.49, respectively.

What is called pKi is the negative decadic logarithm of the Ki, by convention in mol/L. `NC(=O)[C@H](CCC(=O)O)NC(=O)[C@@H](CCC(=O)O)NC(=O)CCc1cc(-c2ccc(-c3cccc(Cl)c3)cc2)no1`: the pKi in data set [17] is 6.25; at Matrilysin [18] it was 5.92; at Stromelysin-1 [19], 7.21; in data set [20], 5.69; at Stromelysin-2 [21] it was 7.32; on Collagenase 3 [22], 7.40. In addition, the results for the pKi (at Neutrophil collagenase [23]; at Interstitial collagenase [24]; in data set [25]) were 6.74, 4.75 and 7.12, respectively.

For orientation: half-life means the time needed for the level to fall by half in the phase considered. Usually AUC stands for concentration integrated over time. Turning to `O=C(NCCCCCNS(=O)(=O)c1ccc(Oc2ccccc2)cc1)P(=O)(O)O`, the pIC50 at Collagenase 3 [26] is under 7.22; in [27], under 7.00; in data set [30], under 7.10; in data set [32], under 7.00; in data set [33], 8.40. Further, the half-life is 9.3 h in [28] and 10.5 h in data set [29]. In addition, the AUC is 78000 ng·h/mL in data set [31] and 6800 ng·h/mL in [34].

The record behind these values is ChEMBL document CHEMBL5113513, “Selective Inhibitors of Medium-Size S1' Pocket Matrix Metalloproteinases: A Stepping Stone of Future Drug Discovery” (J Med Chem, 2022).
